The supplement of paper PMC10883282

Tests used:
Test in all cases: relative viability vs DMSO control (72 h) (fraction); higher = more viable cells
RD = tested on: RD
Procedure, shortened: (§1)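 Sarcoma cell lines in 384-well plates, seeded to reach 80–90% confluence, were given compound after 24 h and kept 72 h at 37 °C, 5% CO2, with 0.1% DMSO vehicle and a 5 µM positive control. Relative viability came from ATPLite as percent growth, averaged over up to triplicate wells. On the rescaled values, 1 equals full and 0 equals none.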

SK-ES-1 = tested on: SK-ES-1
Procedure, shortened: as §1

HT1080 = tested on: HT1080
Procedure, shortened: as §1

KHOS-240S = tested on: KHOS-240S
Procedure, shortened: as §1

SK-LMS-1 = tested on: SK-LMS-1
Procedure, shortened: as §1

VA-ES-BJ = tested on: VA-ES-BJ
Procedure, shortened: as §1

MES-SA = tested on: MES-SA
Procedure, shortened: as §1

G401 = tested on: G401
Procedure, shortened: as §1

SW1353 = tested on: SW1353
Procedure, shortened: as §1

RD-ES = tested on: RD-ES
Procedure, shortened: as §1

SYO-1 = tested on: SYO-1
Procedure, shortened: as §1

SW982 = tested on: SW982
Procedure, shortened: as §1

C[C@]12O[C@H](C[C@]1(O)CO)n1c3ccccc3c3c4c(c5c6ccccc6n2c5c31)CNC4=O [Lestaurtinib]
Details	relative viability
G401, 0.00017 µM	1.01
G401, 0.00051 µM	0.985
G401, 0.00152 µM	1.03
G401, 0.00457 µM	1.02
G401, 0.01372 µM	1.03
G401, 0.04115 µM	0.996
G401, 0.1235 µM	0.985
G401, 0.3704 µM	0.912
G401, 1.111 µM	0.718
G401, 3.333 µM	0.023
G401, 10 µM	0.00583
HT1080, 0.00017 µM	1.09
HT1080, 0.00051 µM	1.11
HT1080, 0.00152 µM	1.1
HT1080, 0.00457 µM	1.12
HT1080, 0.01372 µM	1.09
HT1080, 0.04115 µM	1.12
HT1080, 0.1235 µM	0.915
HT1080, 0.3704 µM	0.877
HT1080, 1.111 µM	0.689
HT1080, 3.333 µM	0.185
HT1080, 10 µM	0.0222
KHOS-240S, 0.00017 µM	1.086
KHOS-240S, 0.00051 µM	1.06
KHOS-240S, 0.00152 µM	1.1
KHOS-240S, 0.00457 µM	1.04
KHOS-240S, 0.01372 µM	1.06
KHOS-240S, 0.04115 µM	1.05
KHOS-240S, 0.1235 µM	0.892
KHOS-240S, 0.3704 µM	0.525
KHOS-240S, 1.111 µM	0.345
KHOS-240S, 3.333 µM	0.169
KHOS-240S, 10 µM	0.0619
MES-SA, 0.00017 µM	0.966
MES-SA, 0.00051 µM	0.928
MES-SA, 0.00152 µM	0.947
MES-SA, 0.00457 µM	0.947
MES-SA, 0.01372 µM	0.874
MES-SA, 0.04115 µM	0.751
MES-SA, 0.1235 µM	0.538
MES-SA, 0.3704 µM	0.333
MES-SA, 1.111 µM	0.2911
MES-SA, 3.333 µM	0.164
MES-SA, 10 µM	0.00447
RD, 0.00017 µM	1.05
RD, 0.00051 µM	1.064
RD, 0.00152 µM	1.09
RD, 0.00457 µM	1.09
RD, 0.01372 µM	1.1
RD, 0.04115 µM	1.06
RD, 0.1235 µM	1.01
RD, 0.3704 µM	0.892
RD, 1.111 µM	0.645
RD, 3.333 µM	0.326
RD, 10 µM	0.126
RD-ES, 0.00017 µM	0.996
RD-ES, 0.00051 µM	1
RD-ES, 0.00152 µM	0.999
RD-ES, 0.00457 µM	0.989
RD-ES, 0.01372 µM	0.936
RD-ES, 0.04115 µM	0.804
RD-ES, 0.1235 µM	0.497
RD-ES, 0.3704 µM	0.288
RD-ES, 1.111 µM	0.16
RD-ES, 3.333 µM	0.0482
RD-ES, 10 µM	0.0633
SK-ES-1, 0.00017 µM	1.1
SK-ES-1, 0.00051 µM	1.06
SK-ES-1, 0.00152 µM	1.07
SK-ES-1, 0.00457 µM	1
SK-ES-1, 0.01372 µM	0.881
SK-ES-1, 0.04115 µM	0.543
SK-ES-1, 0.1235 µM	0.329
SK-ES-1, 0.3704 µM	0.0863
SK-ES-1, 1.111 µM	0.0742
SK-ES-1, 3.333 µM	0.0554
SK-ES-1, 10 µM	0.0776
SK-LMS-1, 0.00017 µM	1.08
SK-LMS-1, 0.00051 µM	1.1
SK-LMS-1, 0.00152 µM	1.06
SK-LMS-1, 0.00457 µM	1.04
SK-LMS-1, 0.01372 µM	1.01
SK-LMS-1, 0.04115 µM	0.878
SK-LMS-1, 0.1235 µM	0.722
SK-LMS-1, 0.3704 µM	0.669
SK-LMS-1, 1.111 µM	0.541
SK-LMS-1, 3.333 µM	0.353
SK-LMS-1, 10 µM	0.146
SW982, 0.00017 µM	1.03
SW982, 0.00051 µM	1.03
SW982, 0.00152 µM	1.06
SW982, 0.00457 µM	1.03
SW982, 0.01372 µM	0.895
SW982, 0.04115 µM	0.697
SW982, 0.1235 µM	0.494
SW982, 0.3704 µM	0.381
SW982, 1.111 µM	0.314
SW982, 3.333 µM	0.23
SW982, 10 µM	0.0243
SW1353, 0.00017 µM	1.04
SW1353, 0.00051 µM	1.01
SW1353, 0.00152 µM	1
SW1353, 0.00457 µM	0.975
SW1353, 0.01372 µM	0.943
SW1353, 0.04115 µM	0.868
SW1353, 0.1235 µM	0.756
SW1353, 0.3704 µM	0.698
SW1353, 1.111 µM	0.6462
SW1353, 3.333 µM	0.375
SW1353, 10 µM	0.155
SYO-1, 0.00017 µM	1.02
SYO-1, 0.00051 µM	0.989
SYO-1, 0.00152 µM	0.992
SYO-1, 0.00457 µM	0.991
SYO-1, 0.01372 µM	0.943
SYO-1, 0.04115 µM	0.873
SYO-1, 0.1235 µM	0.644
SYO-1, 0.3704 µM	0.295
SYO-1, 1.111 µM	0.0874
SYO-1, 3.333 µM	0.1
SYO-1, 10 µM	0.102
VA-ES-BJ, 0.00017 µM	1.06
VA-ES-BJ, 0.00051 µM	1.06
VA-ES-BJ, 0.00152 µM	1.06
VA-ES-BJ, 0.00457 µM	1.03
VA-ES-BJ, 0.01372 µM	0.953
VA-ES-BJ, 0.04115 µM	0.838
VA-ES-BJ, 0.1235 µM	0.657
VA-ES-BJ, 0.3704 µM	0.544
VA-ES-BJ, 1.111 µM	0.42
VA-ES-BJ, 3.333 µM	0.176
VA-ES-BJ, 10 µM	-0.00757

N#CCNC(=O)c1ccc(-c2ccnc(Nc3ccc(N4CCOCC4)cc3)n2)cc1 [Momelotinib]
Details	relative viability
G401, 0.00017 µM	1.01
G401, 0.00051 µM	1.011
G401, 0.00152 µM	1.05
G401, 0.00457 µM	1.06
G401, 0.01372 µM	1.01
G401, 0.04115 µM	0.964
G401, 0.1235 µM	0.975
G401, 0.3704 µM	0.898
G401, 1.111 µM	0.779
G401, 3.333 µM	0.683
G401, 10 µM	0.54
HT1080, 0.00017 µM	1.03
HT1080, 0.00051 µM	1.1
HT1080, 0.00152 µM	1.069
HT1080, 0.00457 µM	1.06
HT1080, 0.01372 µM	1.08
HT1080, 0.04115 µM	1.09
HT1080, 0.1235 µM	1.12
HT1080, 0.3704 µM	1.17
HT1080, 1.111 µM	1.18
HT1080, 3.333 µM	1.25
HT1080, 10 µM	1.21
KHOS-240S, 0.00017 µM	1.05
KHOS-240S, 0.00051 µM	1.03
KHOS-240S, 0.00152 µM	1.08
KHOS-240S, 0.00457 µM	1.05
KHOS-240S, 0.01372 µM	1.08
KHOS-240S, 0.04115 µM	1.03
KHOS-240S, 0.1235 µM	0.992
KHOS-240S, 0.3704 µM	0.92
KHOS-240S, 1.111 µM	0.789
KHOS-240S, 3.333 µM	0.768
KHOS-240S, 10 µM	0.725
MES-SA, 0.00017 µM	0.942
MES-SA, 0.00051 µM	0.971
MES-SA, 0.00152 µM	0.9306
MES-SA, 0.00457 µM	0.952
MES-SA, 0.01372 µM	0.934
MES-SA, 0.04115 µM	0.881
MES-SA, 0.1235 µM	0.84
MES-SA, 0.3704 µM	0.786
MES-SA, 1.111 µM	0.685
MES-SA, 3.333 µM	0.616
MES-SA, 10 µM	0.378
RD, 0.00017 µM	0.971
RD, 0.00051 µM	0.998
RD, 0.00152 µM	0.987
RD, 0.00457 µM	1.03
RD, 0.01372 µM	0.995
RD, 0.04115 µM	1.02
RD, 0.1235 µM	1.041
RD, 0.3704 µM	1.04
RD, 1.111 µM	1.02
RD, 3.333 µM	0.994
RD, 10 µM	0.905
RD-ES, 0.00017 µM	0.9849
RD-ES, 0.00051 µM	0.981
RD-ES, 0.00152 µM	0.9765
RD-ES, 0.00457 µM	0.965
RD-ES, 0.01372 µM	0.976
RD-ES, 0.04115 µM	0.954
RD-ES, 0.1235 µM	0.955
RD-ES, 0.3704 µM	0.896
RD-ES, 1.111 µM	0.818
RD-ES, 3.333 µM	0.84
RD-ES, 10 µM	0.797
SK-ES-1, 0.00017 µM	1.06
SK-ES-1, 0.00051 µM	1.05
SK-ES-1, 0.00152 µM	1.01
SK-ES-1, 0.00457 µM	1.01
SK-ES-1, 0.01372 µM	0.978
SK-ES-1, 0.04115 µM	0.953
SK-ES-1, 0.1235 µM	0.914
SK-ES-1, 0.3704 µM	0.781
SK-ES-1, 1.111 µM	0.575
SK-ES-1, 3.333 µM	0.516
SK-ES-1, 10 µM	0.332
SK-LMS-1, 0.00017 µM	1.13
SK-LMS-1, 0.00051 µM	1.13
SK-LMS-1, 0.00152 µM	1.11
SK-LMS-1, 0.00457 µM	1.1
SK-LMS-1, 0.01372 µM	1.13
SK-LMS-1, 0.04115 µM	1.06
SK-LMS-1, 0.1235 µM	1.08
SK-LMS-1, 0.3704 µM	1.05
SK-LMS-1, 1.111 µM	0.946
SK-LMS-1, 3.333 µM	0.924
SK-LMS-1, 10 µM	0.886
SW982, 0.00017 µM	0.986
SW982, 0.00051 µM	1.02
SW982, 0.00152 µM	1.025
SW982, 0.00457 µM	1.02
SW982, 0.01372 µM	0.983
SW982, 0.04115 µM	1
SW982, 0.1235 µM	0.987
SW982, 0.3704 µM	0.841
SW982, 1.111 µM	0.604
SW982, 3.333 µM	0.548
SW982, 10 µM	0.436
SW1353, 0.00017 µM	1.1
SW1353, 0.00051 µM	1.05
SW1353, 0.00152 µM	1.07
SW1353, 0.00457 µM	1.07
SW1353, 0.01372 µM	1.06
SW1353, 0.04115 µM	1.04
SW1353, 0.1235 µM	1.03
SW1353, 0.3704 µM	0.963
SW1353, 1.111 µM	0.7816
SW1353, 3.333 µM	0.739
SW1353, 10 µM	0.511
SYO-1, 0.00017 µM	1.02
SYO-1, 0.00051 µM	1.02
SYO-1, 0.00152 µM	1.01
SYO-1, 0.00457 µM	1.02
SYO-1, 0.01372 µM	0.985
SYO-1, 0.04115 µM	1.01
SYO-1, 0.1235 µM	0.933
SYO-1, 0.3704 µM	0.809
SYO-1, 1.111 µM	0.643
SYO-1, 3.333 µM	0.503
SYO-1, 10 µM	0.289
VA-ES-BJ, 0.00017 µM	1.07
VA-ES-BJ, 0.00051 µM	1.07
VA-ES-BJ, 0.00152 µM	1.08
VA-ES-BJ, 0.00457 µM	1.066
VA-ES-BJ, 0.01372 µM	1.09
VA-ES-BJ, 0.04115 µM	1.07
VA-ES-BJ, 0.1235 µM	1.04
VA-ES-BJ, 0.3704 µM	1.03
VA-ES-BJ, 1.111 µM	0.97
VA-ES-BJ, 3.333 µM	0.987
VA-ES-BJ, 10 µM	0.891
